Test results: PMC11480411, “Mucosal sugars delineate pyrazine vs pyrazinone autoinducer signaling in Klebsiella oxytoca” (Nature Communications, 2024)

Tests used:
Experiment in all cases: PRESTO-Tango GPCR screen
Type in all cases: cell-based
Details in all cases: 100 µM
F2RL3 = target: T1, F2RL3 (Homo sapiens, UniProt Q96RI0)
T1 construct: purchased PRESTO-Tango GPCR kit (Roth lab / Addgene)
Outline: (§1)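 HTLA cells (HEK293 stably expressing β-arrestin-TEV and tTA-luciferase) were transiently transfected with GPCR-Tango plasmids using polyethylenimine. After 16-24 h they were stimulated with compound at 100 μM final for 20 h. Luminescence was read with Bright-Glo and expressed as fold activation over PBS control.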

GPR87 = target: T2, GPR87 (Homo sapiens, UniProt Q9BY21)
T2 construct: purchased PRESTO-Tango GPCR kit (Roth lab / Addgene)
Outline: as §1

GAL1 = target: T3, GAL1 (Homo sapiens, UniProt P47211)
T3 construct: purchased PRESTO-Tango GPCR kit (Roth lab / Addgene)
Outline: as §1

MAS1 = target: T4, MAS1 (Homo sapiens, UniProt P04201)
T4 construct: purchased PRESTO-Tango GPCR kit (Roth lab / Addgene)
Outline: as §1

CCRL2 = target: T5, CCRL2 (Homo sapiens, UniProt O00421)
T5 construct: purchased PRESTO-Tango GPCR kit (Roth lab / Addgene)
Outline: as §1

GHSR = target: T6, GHSR (Homo sapiens, UniProt Q92847)
T6 construct: purchased PRESTO-Tango GPCR kit (Roth lab / Addgene)
Outline: as §1

HTR1F = target: T7, HTR1F (Homo sapiens, UniProt P30939)
T7 construct: purchased PRESTO-Tango GPCR kit (Roth lab / Addgene)
Outline: as §1

S1PR4 = target: T8, S1PR4 (Homo sapiens, UniProt O95977)
T8 construct: purchased PRESTO-Tango GPCR kit (Roth lab / Addgene)
Outline: as §1

ADORA2B = target: T9, ADORA2B (Homo sapiens, UniProt P29275)
T9 construct: purchased PRESTO-Tango GPCR kit (Roth lab / Addgene)
Outline: as §1

GPR17 = target: T10, GPR17 (Homo sapiens, UniProt Q13304)
T10 construct: purchased PRESTO-Tango GPCR kit (Roth lab / Addgene)
Outline: as §1

GPR162 = target: T11, GPR162 (Homo sapiens, UniProt Q16538)
T11 construct: purchased PRESTO-Tango GPCR kit (Roth lab / Addgene)
Outline: as §1

CXCR1 = target: T12, CXCR1 (Homo sapiens, UniProt P25024)
T12 construct: purchased PRESTO-Tango GPCR kit (Roth lab / Addgene)
Outline: as §1

GPRC6A = target: T13, GPRC6A (Homo sapiens, UniProt Q5T6X5)
T13 construct: purchased PRESTO-Tango GPCR kit (Roth lab / Addgene)
Outline: as §1

FPR2 = target: T14, FPR2 (Homo sapiens, UniProt P25090)
T14 construct: purchased PRESTO-Tango GPCR kit (Roth lab / Addgene)
Outline: as §1

NTSR2 = target: T15, NTSR2 (Homo sapiens, UniProt O95665)
T15 construct: purchased PRESTO-Tango GPCR kit (Roth lab / Addgene)
Outline: as §1

HCA2 = target: T16, HCA2 (Homo sapiens, UniProt Q8TDS4)
T16 construct: purchased PRESTO-Tango GPCR kit (Roth lab / Addgene)
Outline: as §1

GPR83 = target: T17, GPR83 (Homo sapiens, UniProt Q9NYM4)
T17 construct: purchased PRESTO-Tango GPCR kit (Roth lab / Addgene)
Outline: as §1

ADORA1 = target: T18, ADORA1 (Homo sapiens, UniProt P30542)
T18 construct: purchased PRESTO-Tango GPCR kit (Roth lab / Addgene)
Outline: as §1

RXFP1 = target: T19, RXFP1 (Homo sapiens, UniProt Q9HBX9)
T19 construct: purchased PRESTO-Tango GPCR kit (Roth lab / Addgene)
Outline: as §1

LTB4R2B = target: T20, LTB4R2B (Homo sapiens, UniProt Q9NPC1)
T20 construct: purchased PRESTO-Tango GPCR kit (Roth lab / Addgene)
Outline: as §1

OPRK1 = target: T21, OPRK1 (Homo sapiens, UniProt P41145)
T21 construct: purchased PRESTO-Tango GPCR kit (Roth lab / Addgene)
Outline: as §1

CCR6 = target: T22, CCR6 (Homo sapiens, UniProt P51684)
T22 construct: purchased PRESTO-Tango GPCR kit (Roth lab / Addgene)
Outline: as §1

GPR132 = target: T23, GPR132 (Homo sapiens, UniProt Q9UNW8)
T23 construct: purchased PRESTO-Tango GPCR kit (Roth lab / Addgene)
Outline: as §1

MTNR1A = target: T24, MTNR1A (Homo sapiens, UniProt P48039)
T24 construct: purchased PRESTO-Tango GPCR kit (Roth lab / Addgene)
Outline: as §1

MRGPRF = target: T25, MRGPRF (Homo sapiens, UniProt Q96AM1)
T25 construct: purchased PRESTO-Tango GPCR kit (Roth lab / Addgene)
Outline: as §1

C5A = target: T26, C5A (Homo sapiens, UniProt P21730)
T26 construct: purchased PRESTO-Tango GPCR kit (Roth lab / Addgene)
Outline: as §1

LHCGR = target: T27, LHCGR (Homo sapiens, UniProt P22888)
T27 construct: purchased PRESTO-Tango GPCR kit (Roth lab / Addgene)
Outline: as §1

HTR5 = target: T28, HTR5 (Homo sapiens, UniProt P47898)
T28 construct: purchased PRESTO-Tango GPCR kit (Roth lab / Addgene)
Outline: as §1

OPN3 = target: T29, OPN3 (Homo sapiens, UniProt Q9H1Y3)
T29 construct: purchased PRESTO-Tango GPCR kit (Roth lab / Addgene)
Outline: as §1

GNRHR = target: T30, GNRHR (Homo sapiens, UniProt P30968)
T30 construct: purchased PRESTO-Tango GPCR kit (Roth lab / Addgene)
Outline: as §1

VIPR2 = target: T31, VIPR2 (Homo sapiens, UniProt P41587)
T31 construct: purchased PRESTO-Tango GPCR kit (Roth lab / Addgene)
Outline: as §1

GRM7 = target: T32, GRM7 (Homo sapiens, UniProt Q14831)
T32 construct: purchased PRESTO-Tango GPCR kit (Roth lab / Addgene)
Outline: as §1

MRGPRE = target: T33, MRGPRE (Homo sapiens, UniProt Q86SM8)
T33 construct: purchased PRESTO-Tango GPCR kit (Roth lab / Addgene)
Outline: as §1

CXCR5 = target: T34, CXCR5 (Homo sapiens, UniProt P32302)
T34 construct: purchased PRESTO-Tango GPCR kit (Roth lab / Addgene)
Outline: as §1

MC4R = target: T35, MC4R (Homo sapiens, UniProt P32245)
T35 construct: purchased PRESTO-Tango GPCR kit (Roth lab / Addgene)
Outline: as §1

CX3C1 = target: T36, CX3C1 (Homo sapiens, UniProt P49238)
T36 construct: purchased PRESTO-Tango GPCR kit (Roth lab / Addgene)
Outline: as §1

T14 sequence (P25090 whole entry): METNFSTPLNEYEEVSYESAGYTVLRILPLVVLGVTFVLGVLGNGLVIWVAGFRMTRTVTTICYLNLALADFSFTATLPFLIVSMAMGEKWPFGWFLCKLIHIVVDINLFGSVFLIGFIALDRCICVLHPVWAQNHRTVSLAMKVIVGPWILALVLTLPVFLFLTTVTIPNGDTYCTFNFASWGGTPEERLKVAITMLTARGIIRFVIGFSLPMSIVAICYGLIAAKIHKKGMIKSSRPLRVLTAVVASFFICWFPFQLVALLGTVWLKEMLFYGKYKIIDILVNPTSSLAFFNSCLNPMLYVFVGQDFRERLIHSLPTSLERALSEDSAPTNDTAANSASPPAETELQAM
T3 sequence (P47211 whole entry): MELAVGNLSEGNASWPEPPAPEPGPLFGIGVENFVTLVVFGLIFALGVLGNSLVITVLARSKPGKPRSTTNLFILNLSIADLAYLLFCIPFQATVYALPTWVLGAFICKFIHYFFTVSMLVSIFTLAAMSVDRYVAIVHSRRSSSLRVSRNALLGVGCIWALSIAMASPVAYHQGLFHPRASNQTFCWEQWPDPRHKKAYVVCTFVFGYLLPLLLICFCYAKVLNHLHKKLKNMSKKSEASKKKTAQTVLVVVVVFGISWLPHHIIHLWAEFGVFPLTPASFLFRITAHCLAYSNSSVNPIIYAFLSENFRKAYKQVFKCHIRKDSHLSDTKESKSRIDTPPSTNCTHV
T5 sequence (O00421 whole entry): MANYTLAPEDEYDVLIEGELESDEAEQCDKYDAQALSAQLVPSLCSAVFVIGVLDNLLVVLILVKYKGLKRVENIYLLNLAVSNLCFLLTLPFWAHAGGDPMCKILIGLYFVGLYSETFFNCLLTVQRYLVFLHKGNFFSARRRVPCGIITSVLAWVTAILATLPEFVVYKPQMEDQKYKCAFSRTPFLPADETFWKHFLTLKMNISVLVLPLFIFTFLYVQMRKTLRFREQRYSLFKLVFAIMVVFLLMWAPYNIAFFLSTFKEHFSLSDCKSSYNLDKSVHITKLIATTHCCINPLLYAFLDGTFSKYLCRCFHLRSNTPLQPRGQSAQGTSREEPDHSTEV
T23 sequence (Q9UNW8 whole entry): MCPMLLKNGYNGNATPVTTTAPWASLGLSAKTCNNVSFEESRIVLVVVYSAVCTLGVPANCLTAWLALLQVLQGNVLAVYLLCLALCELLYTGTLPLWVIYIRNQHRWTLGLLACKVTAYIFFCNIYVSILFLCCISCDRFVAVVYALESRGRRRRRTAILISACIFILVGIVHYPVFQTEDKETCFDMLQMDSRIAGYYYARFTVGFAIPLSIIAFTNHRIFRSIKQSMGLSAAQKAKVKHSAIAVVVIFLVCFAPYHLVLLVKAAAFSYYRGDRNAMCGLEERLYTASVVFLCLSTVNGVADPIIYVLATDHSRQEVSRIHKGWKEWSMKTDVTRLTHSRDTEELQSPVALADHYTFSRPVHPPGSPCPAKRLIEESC
T22 sequence (P51684 whole entry): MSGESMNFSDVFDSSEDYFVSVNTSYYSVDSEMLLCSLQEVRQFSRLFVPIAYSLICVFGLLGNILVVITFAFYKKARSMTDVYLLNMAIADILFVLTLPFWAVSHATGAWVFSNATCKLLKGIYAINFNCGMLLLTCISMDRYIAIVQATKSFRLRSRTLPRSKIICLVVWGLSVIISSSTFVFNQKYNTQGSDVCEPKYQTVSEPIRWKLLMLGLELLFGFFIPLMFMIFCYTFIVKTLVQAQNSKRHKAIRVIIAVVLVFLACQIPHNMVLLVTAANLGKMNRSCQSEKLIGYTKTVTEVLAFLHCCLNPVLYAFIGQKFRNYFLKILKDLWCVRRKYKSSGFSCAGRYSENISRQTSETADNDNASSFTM
T25 sequence (Q96AM1 whole entry): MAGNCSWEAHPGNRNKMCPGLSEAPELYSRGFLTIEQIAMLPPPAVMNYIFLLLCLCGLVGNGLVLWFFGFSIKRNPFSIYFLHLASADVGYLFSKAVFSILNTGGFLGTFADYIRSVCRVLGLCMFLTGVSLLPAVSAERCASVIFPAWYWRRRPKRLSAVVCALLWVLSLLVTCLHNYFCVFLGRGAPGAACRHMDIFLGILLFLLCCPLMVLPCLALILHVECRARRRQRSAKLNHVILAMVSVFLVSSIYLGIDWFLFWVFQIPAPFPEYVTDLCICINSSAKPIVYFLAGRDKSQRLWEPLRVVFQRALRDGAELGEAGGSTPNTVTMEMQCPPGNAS
T26 sequence (P21730 whole entry): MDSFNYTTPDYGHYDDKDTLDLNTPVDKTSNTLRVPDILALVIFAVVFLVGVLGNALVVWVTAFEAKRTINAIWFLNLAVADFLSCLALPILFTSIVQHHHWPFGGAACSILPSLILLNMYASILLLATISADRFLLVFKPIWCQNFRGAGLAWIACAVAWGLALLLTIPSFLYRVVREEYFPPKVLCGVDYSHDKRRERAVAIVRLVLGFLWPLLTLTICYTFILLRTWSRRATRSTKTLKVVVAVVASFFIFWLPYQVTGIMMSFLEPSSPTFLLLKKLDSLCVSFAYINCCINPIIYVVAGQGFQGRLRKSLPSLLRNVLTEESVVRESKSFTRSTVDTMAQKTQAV
T4 sequence (P04201 whole entry): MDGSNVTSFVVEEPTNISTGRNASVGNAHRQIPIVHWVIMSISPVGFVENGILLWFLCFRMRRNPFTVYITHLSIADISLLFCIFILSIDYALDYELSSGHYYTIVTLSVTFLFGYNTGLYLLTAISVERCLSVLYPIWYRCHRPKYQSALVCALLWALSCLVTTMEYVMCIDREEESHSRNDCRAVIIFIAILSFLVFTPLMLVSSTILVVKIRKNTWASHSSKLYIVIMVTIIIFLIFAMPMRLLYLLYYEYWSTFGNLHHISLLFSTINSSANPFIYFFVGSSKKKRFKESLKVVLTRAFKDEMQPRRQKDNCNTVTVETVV
T12 sequence (P25024 whole entry): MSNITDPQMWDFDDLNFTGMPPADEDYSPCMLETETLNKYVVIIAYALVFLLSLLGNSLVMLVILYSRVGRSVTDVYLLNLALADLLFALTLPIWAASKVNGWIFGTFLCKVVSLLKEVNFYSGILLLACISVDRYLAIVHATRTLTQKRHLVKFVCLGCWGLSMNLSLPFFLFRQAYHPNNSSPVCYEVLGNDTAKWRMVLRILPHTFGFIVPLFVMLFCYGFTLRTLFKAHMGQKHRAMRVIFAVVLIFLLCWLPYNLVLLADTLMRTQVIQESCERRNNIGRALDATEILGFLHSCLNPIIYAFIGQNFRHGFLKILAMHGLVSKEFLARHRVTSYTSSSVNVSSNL
T17 sequence (Q9NYM4 17-423): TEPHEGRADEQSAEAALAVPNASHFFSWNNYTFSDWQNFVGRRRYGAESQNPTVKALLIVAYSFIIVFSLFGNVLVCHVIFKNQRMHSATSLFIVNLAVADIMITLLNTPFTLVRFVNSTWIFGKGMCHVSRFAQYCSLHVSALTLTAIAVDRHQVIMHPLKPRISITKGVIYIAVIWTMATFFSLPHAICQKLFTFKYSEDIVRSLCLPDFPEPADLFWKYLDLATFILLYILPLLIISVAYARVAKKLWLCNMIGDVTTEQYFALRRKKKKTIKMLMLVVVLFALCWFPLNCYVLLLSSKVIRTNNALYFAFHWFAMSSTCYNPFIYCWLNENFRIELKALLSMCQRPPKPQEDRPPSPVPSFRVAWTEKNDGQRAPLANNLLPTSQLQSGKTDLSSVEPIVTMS
T8 sequence (O95977 whole entry): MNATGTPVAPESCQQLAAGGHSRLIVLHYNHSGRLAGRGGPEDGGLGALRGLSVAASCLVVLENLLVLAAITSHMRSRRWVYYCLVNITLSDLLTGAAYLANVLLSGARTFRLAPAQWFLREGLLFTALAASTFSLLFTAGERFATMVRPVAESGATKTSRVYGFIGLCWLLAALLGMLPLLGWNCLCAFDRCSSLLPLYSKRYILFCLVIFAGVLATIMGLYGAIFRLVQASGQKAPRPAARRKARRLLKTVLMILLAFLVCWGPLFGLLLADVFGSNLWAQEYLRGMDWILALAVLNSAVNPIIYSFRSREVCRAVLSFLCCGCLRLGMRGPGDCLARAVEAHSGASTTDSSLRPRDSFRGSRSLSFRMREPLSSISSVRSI
T9 sequence (P29275 whole entry): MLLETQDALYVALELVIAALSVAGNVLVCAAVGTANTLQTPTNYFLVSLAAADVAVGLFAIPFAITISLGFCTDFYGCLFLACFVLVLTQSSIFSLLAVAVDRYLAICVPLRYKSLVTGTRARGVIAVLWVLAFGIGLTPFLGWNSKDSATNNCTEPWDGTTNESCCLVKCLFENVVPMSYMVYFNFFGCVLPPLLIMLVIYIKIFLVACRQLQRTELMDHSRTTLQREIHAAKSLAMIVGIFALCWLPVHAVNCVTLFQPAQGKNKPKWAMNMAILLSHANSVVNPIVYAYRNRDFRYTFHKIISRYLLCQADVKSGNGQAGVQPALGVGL
T6 sequence (Q92847 whole entry): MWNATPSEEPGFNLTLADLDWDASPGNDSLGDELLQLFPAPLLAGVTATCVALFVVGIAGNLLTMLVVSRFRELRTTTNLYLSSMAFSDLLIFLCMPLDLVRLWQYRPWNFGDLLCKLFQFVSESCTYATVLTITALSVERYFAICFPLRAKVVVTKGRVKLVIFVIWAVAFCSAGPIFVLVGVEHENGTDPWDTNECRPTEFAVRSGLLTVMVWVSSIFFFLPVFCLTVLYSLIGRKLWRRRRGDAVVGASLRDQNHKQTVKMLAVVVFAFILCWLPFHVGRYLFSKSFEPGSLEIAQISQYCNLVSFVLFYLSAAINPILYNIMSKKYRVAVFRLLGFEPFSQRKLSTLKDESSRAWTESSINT

For CC(C)Cc1ncc(CCCCNC(=N)N)[nH]c1=O [3-Homo], the “GPCR activation (heatmap value)” value (F2RL3) was -0.0006117, the “GPCR activation (heatmap value)” value (GPR87) was -0.5192 and the “GPCR activation (heatmap value)” value (GAL1) was -0.2703. For the same molecule, the “GPCR activation (heatmap value)” value (MAS1) was 0.05755, the “GPCR activation (heatmap value)” value (CCRL2) was 0.009703 and the “GPCR activation (heatmap value)” value (GHSR) was 0.75. For the same molecule, the “GPCR activation (heatmap value)” value (HTR1F) was -0.1727, the “GPCR activation (heatmap value)” value (S1PR4) was 0.5734 and the “GPCR activation (heatmap value)” value (ADORA2B) was -1.632. The “GPCR activation (heatmap value)” value (GPR17) was 0.06719, the “GPCR activation (heatmap value)” value (GPR162) was -0.5864 and the “GPCR activation (heatmap value)” value (CXCR1) was 0.5406. For the same molecule, the “GPCR activation (heatmap value)” value (GPRC6A) was -1.019, the “GPCR activation (heatmap value)” value (FPR2) was 0.05882 and the “GPCR activation (heatmap value)” value (NTSR2) was -0.1953. For the same molecule, the “GPCR activation (heatmap value)” value (HCA2) was 0.4377, the “GPCR activation (heatmap value)” value (GPR83) was 0.2309 and the “GPCR activation (heatmap value)” value (ADORA1) was 0.08121. The “GPCR activation (heatmap value)” value (RXFP1) was -0.5413, the “GPCR activation (heatmap value)” value (LTB4R2B) was 0.02731 and the “GPCR activation (heatmap value)” value (OPRK1) was -0.1244. For the same molecule, the “GPCR activation (heatmap value)” value (CCR6) was -1.378, the “GPCR activation (heatmap value)” value (GPR132) was 0.4638 and the “GPCR activation (heatmap value)” value (MTNR1A) was -0.06354. For the same molecule, the “GPCR activation (heatmap value)” value (MRGPRF) was 0.9987, the “GPCR activation (heatmap value)” value (C5A) was 0.3516 and the “GPCR activation (heatmap value)” value (LHCGR) was 0.1782. The “GPCR activation (heatmap value)” value (HTR5) was 0.4039, the “GPCR activation (heatmap value)” value (OPN3) was 0.7317 and the “GPCR activation (heatmap value)” value (GNRHR) was -0.5775. For the same molecule, the “GPCR activation (heatmap value)” value (VIPR2) was 0.5382, the “GPCR activation (heatmap value)” value (GRM7) was -0.0693 and the “GPCR activation (heatmap value)” value (MRGPRE) was 0.8539. For the same molecule, the “GPCR activation (heatmap value)” value (CXCR5) was -0.9057, the “GPCR activation (heatmap value)” value (MC4R) was -0.9791 and the “GPCR activation (heatmap value)” value (CX3C1) was 0.09565.

For CC(C)Cc1ncc(CCCNC(=N)N)[nH]c1=O [compound 3], the “GPCR activation (heatmap value)” value (F2RL3) was 0.3497, the “GPCR activation (heatmap value)” value (GPR87) was -0.4548 and the “GPCR activation (heatmap value)” value (GAL1) was -0.09983. The “GPCR activation (heatmap value)” value (MAS1) was 0.09111, the “GPCR activation (heatmap value)” value (CCRL2) was 0.3717 and the “GPCR activation (heatmap value)” value (GHSR) was -0.1187. For the same molecule, the “GPCR activation (heatmap value)” value (HTR1F) was 0.1369, the “GPCR activation (heatmap value)” value (S1PR4) was 0.1012 and the “GPCR activation (heatmap value)” value (ADORA2B) was 0.06134. The “GPCR activation (heatmap value)” value (GPR17) was 0.1737, the “GPCR activation (heatmap value)” value (GPR162) was 0.329 and the “GPCR activation (heatmap value)” value (CXCR1) was 0.1868. For the same molecule, the “GPCR activation (heatmap value)” value (GPRC6A) was -0.9035, the “GPCR activation (heatmap value)” value (FPR2) was 0.522 and the “GPCR activation (heatmap value)” value (NTSR2) was -2.304. For the same molecule, the “GPCR activation (heatmap value)” value (HCA2) was 0.2197, the “GPCR activation (heatmap value)” value (GPR83) was -0.04196 and the “GPCR activation (heatmap value)” value (ADORA1) was 0.2527. The “GPCR activation (heatmap value)” value (RXFP1) was -0.4212, the “GPCR activation (heatmap value)” value (LTB4R2B) was -1.038 and the “GPCR activation (heatmap value)” value (OPRK1) was 0.02999. For the same molecule, the “GPCR activation (heatmap value)” value (CCR6) was 0.5005, the “GPCR activation (heatmap value)” value (GPR132) was 0.3578 and the “GPCR activation (heatmap value)” value (MTNR1A) was 0.3857. For the same molecule, the “GPCR activation (heatmap value)” value (MRGPRF) was 0.6496, the “GPCR activation (heatmap value)” value (C5A) was 0.1076 and the “GPCR activation (heatmap value)” value (LHCGR) was 0.1147. The “GPCR activation (heatmap value)” value (HTR5) was -0.08015, the “GPCR activation (heatmap value)” value (OPN3) was 0.9288 and the “GPCR activation (heatmap value)” value (GNRHR) was 0.3051. The “GPCR activation (heatmap value)” value (VIPR2) was -0.5721, the “GPCR activation (heatmap value)” value (GRM7) was 0.04754 and the “GPCR activation (heatmap value)” value (MRGPRE) was 1.264. The “GPCR activation (heatmap value)” value (CXCR5) was 0.2848, the “GPCR activation (heatmap value)” value (MC4R) was 0.1054 and the “GPCR activation (heatmap value)” value (CX3C1) was 0.5532.
